Test results as given in patent US7282213B2, “Method for applying a drug coating to a medical device” (Medtronic, Inc., priority 2002, dated 2007).

Assay: HPLC check for drug degradation after thermal processing of the electrode coating
Type: physicochemical
Conditions: coating heated to solid-state phase change (hot air tool), dissolved from electrode in solvent, compared to control solution
Text: Prior attempts at heating a drug to form a more durable drug coating on an electrode surface have been less successful because the drug may degrade during the heating process due to overheating. One advantage of the present invention is that the controlled heating process, using a focused, direct heat source, achieves a change in solid state and micro-crack healing forming a conformable crystalline coating with a decrease in the defect density, without degrading the drug. […] Electrodes coated with beclomethasone dipropionate, according to the thermal processing methods described above and shown in FIG. 3, have been soaked in a solvent to dissolve the drug coating from the electrode surface. The resulting test solution was analyzed using HPLC and compared to HPLC results from a control sample of beclomethasone dipropionate in solution. Chromatograms of the test solution samples were identical to those of the control samples with regards to retention time of the major peak.

In the case of `CCC(=O)OCC(=O)[C@@]1(OC(=O)CC)[C@@H](C)C[C@H]2[C@@H]3CCC4=CC(=O)C=C[C@]4(C)[C@@]3(Cl)[C@@H](O)C[C@@]21C` [beclomethasone dipropionate anhydrous], the “degradation products by HPLC after thermal processing” value is reported as “no peaks associated with degradation products were observed”.
